# Values quoted from earlier work, collected in US12290596B2, “Compositions and methods for the treatment of opioid overdose” (priority 2021, dated 2025).
# Settings: intranasal formulation with […] Intravail; cited from earlier work
compound,measurement,value
CNS(=O)(=O)Cc1ccc2[nH]cc(CCN(C)C)c2c1 [sumatriptan],Increase of maximum plasma concentration in comparison to Imitrex nasal spray,almost four-fold
same,Increase of total exposure (AUC),32%
same,Tmax,8 to 10 min
